Where a SMILES comes first, the peptide text is derived from it. [ ]: non-standard residue; d: D form. The star is where a group is joined. X6 = CC(C)(COC(=O)*)SSc1nc2c([N+](=O)[O-])cccc2[nH]1; Dolaproine = CO[C@@H]([C@@H]1CCCN1)[C@@H](C)C(=O)O; X22 = CC(C)(COC(=O)*)SSc1nc2cccc(C(=O)O)c2[nH]1; Dil = CC[C@H](C)[C@H](NC)[C@@H](CC(=O)O)OC; X16 = CN(C)C(=O)c1cnccc1SSC(C)(C)COC(=O)*; X4 = CC(C)(COC(=O)*)SSc1nc2ncnc(N)c2[nH]1; X12 = Cn1c(C(=O)O)cnc1SSC(C)(C)COC(=O)*; X17 = Cn1c(SSC(C)(C)COC(=O)*)nc2ccccc21; X19 = Cn1cc(C(=O)O)nc1SSC(C)(C)COC(=O)*; X5 = CC(C)(COC(=O)*)SSc1nc2ncccc2[nH]1; X8 = CC(C)(COC(=O)*)SSc1nc2nccnc2[nH]1; X2 = C[C@@H](N*)[C@@H](O)c1ccccc1; X9 = CC(C)(COC(=O)*)SSc1nnn[nH]1; NMeV = CN[C@H](C(=O)O)C(C)C
Columns and labels:
[1] = pKa of thiol compounds
[2] = biological target: T1, penetratin (AntP) peptide (Drosophila melanogaster, UniProt P02833); test: Conjugation of activated disulfide-MMAE molecules to penetratin (AntP) peptide (% Product); conditions: peptide 25 uM, disulfide MMAE 5 equivalents, 75 mM Tris pH 8.5 and 10% DMF, ~16 hours at room temperature, UV peak area
T1 construct: C-terminal amide (CONH2); made in house; host or cells: chemical synthesis (Fmoc solid-phase peptide synthesis)
Experimental: In a second evaluation, MMAE was conjugated to penetratin (AntP) peptide. The AntP peptide, with sequence H2N-[…]-CONH2 (SEQ ID NO:1) bearing a free Cys thiol at the C-terminus, was synthesized via standard Fmoc solid-phase peptide synthesis methods. This peptide was conjugated at a concentration of 25 uM to disulfide MMAE molecules with varying leaving groups (5 equivalents) in a buffered solution composed of 75 mM Tris, pH 8.5 and 10% DMF for ˜16 hours at room temperature. Extent of the reaction was measured by dividing the integrated area for the UV peak of the MMAE-AntP conjugate by the sum of all peaks (“% Product”). The ideal value for % Product is 100%. The results are reported in table 31 below wherein the wavy line for the leaving group represent the point of attachment to the disulfide bond, and “AntP % P” refers to penetratin (AntP) peptide % product.

[3] = biological target: human serum albumin Cys-34 (Homo sapiens, UniProt P02768); test: Conjugation of activated disulfide-MMAE molecules to human serum albumin (Conjugate Ratio, LC/MS); conditions: disulfide MMAE compound at 10 molar equivalents relative to HSA, 75 mM Tris pH 8.5, ~16 hours at room temperature
Sequence of human serum albumin Cys-34 (P02768 25-609): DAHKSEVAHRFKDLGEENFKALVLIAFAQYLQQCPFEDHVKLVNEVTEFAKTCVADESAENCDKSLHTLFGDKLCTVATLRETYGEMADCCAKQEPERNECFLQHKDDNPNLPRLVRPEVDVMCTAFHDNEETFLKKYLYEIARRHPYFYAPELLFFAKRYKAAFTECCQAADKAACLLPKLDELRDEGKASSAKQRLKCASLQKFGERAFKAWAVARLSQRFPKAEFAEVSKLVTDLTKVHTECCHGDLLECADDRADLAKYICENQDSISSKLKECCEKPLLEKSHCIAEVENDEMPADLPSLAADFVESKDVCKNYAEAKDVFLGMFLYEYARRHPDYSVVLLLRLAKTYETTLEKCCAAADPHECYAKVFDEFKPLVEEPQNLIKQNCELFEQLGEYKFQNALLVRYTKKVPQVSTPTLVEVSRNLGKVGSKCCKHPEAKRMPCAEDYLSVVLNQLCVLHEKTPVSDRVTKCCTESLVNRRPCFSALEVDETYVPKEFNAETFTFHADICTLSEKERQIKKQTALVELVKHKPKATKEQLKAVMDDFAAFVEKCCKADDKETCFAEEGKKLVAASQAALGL
Experimental: In a first evaluation, MMAE was conjugated to human serum albumin (HSA). […] This Cys residue is blocked as a mixed disulfide with Cys or glutathione, preventing complete conjugation of other molecules to this residue. […] Conjugate reactions were analyzed by LC/MS. The extent of the expected MMAE-HSA conjugate formed during the reaction is represented by the “Conjugate Ratio”, measured by dividing the abundance of the MS peak for the MMAE-HSA conjugate by the sum total abundance of all peaks observed. The ideal value for the Conjugate Ratio is 1.0. The results are reported in table 31 below wherein the wavy line for the leaving group represents the point of attachment to the disulfide bond, and “HSA CR” refers to human serum albumin conjugate ratio.

[4] = In vitro disulfide cleavage and immolation by incubation with cysteine or glutathione (LC/MS); assay type: physicochemical; conditions: for Percentage of all products: pH 7.0, 37° C.
Experimental: In a first phase of the experiment, disulfide cleavage and immolation by incubation with cysteine and glutathione—with the thiol concentrations mimic those in plasma and cancer cells—was investigated using unconjugated small molecule model systems with para-nitro-pyridyl disulfide-containing linker drug analogs 1, 2 and 11 below. In particular, cleavage and immolation was evaluated in vitro by incubation at […] with cysteine ([…] or 200 μM) or glutathione (GSH, 4 mM) in 100 mM Tris buffer pH 7.0 containing 5% methanol at 37° C. Aliquots were taken at specified time points and the samples were analyzed by LC/MS on Sciex TripleTOF 5600 on a Hypersil Gold C18 column (100×2.1, […], Thermo Scientific). The column was eluted by a gradient of buffer A (0.1% formic acid in 10 mM ammonium acetate) to buffer B (0.1% formic acid in 10 mM ammonium acetate in 90% acetonitrile), 5% B 0-0.5 min, 5-25% B 0.5-8 min, 25-75% B 8-13 min, and 75-95% B 13-13.5 min, 95% B 13.5-14.5 min, 95-5% B 14.5-15 min at 0.4 mL/min. Under these conditions, para-nitropyridyl thiol was eluted at 5.3 min. All products (compounds 1, 2, 11, 3a, 3b, 4a, 4b, 12a, 12 b, 6, 7, 13 and 8) were separated and characterized by LC/MS/MS in a positive ESI ion mode. All analytes had the protonated molecular MH^+ as the major species with little source fragmentation. Full scan accurate mass peak areas were used to estimate relative abundance of each component and the disappearance of 1, 2, and 11 estimated relative full scan peak areas was consistent with that estimated based on the relative abundance compared to time 0 by MS or UV. The results are reported in Table 15 below and the analytical results are presented in Table 16 below where “Cmpd” refers to compound, “RT” refers to retention time in minutes, and “Calc. Mass” refers to calculated mass. The relative abundance of disulfide cleavage and immolation products over time were evaluated and are disclosed in FIGS. 12A to 12C, 13A to 13C, 14A to 14C and 15A to 15C where the products were monitored by LC/MS from incubations of linker drugs 1, 2, and 11 at pH 7.0 and 37° C. in the presence of: 0.2 mM cysteine (FIGS. 12A, 12B and 12C); 0.03 mM cysteine (FIGS. 13A, 13B and 13C); 4 mM glutathione (FIGS. 14A, 14B and 14C); and 0.03 mM glutathione (FIGS. 15A, 15B and 15C). In FIGS. 12A to 12C, 13A to 13C, 14A to 14C and 15A to 15C, compound reference numbers 1, 2, 3a, 3b, 4a, 4b, 6, 7, 8, 11, 12a, 12b and 13 correspond to the structures below.

[5] = system: calf DNA; test: DNA binding potential (incubation with calf DNA, extraction, LC/MS); conditions: 1 mg/mL calf DNA, 37° C., 1 hour
Experimental: For DNA binding analysis, compounds 7 and 8 were incubated at […] with 1 mg/mL calf DNA for 1 hour in 0.5 mL of 10 mM Bis-Tris, pH 7.1 at 37° C. Ethyl acetate (1 mL) was used to extract the reaction mixture twice by vortex (20 seconds) and centrifugation (4 min at 5,000×g). The combined organic extracts were concentrated under vacuum and reconstituted in 0.15 mL of 1:1 water/methanol before injection on LC/MS. The samples were analyzed by LC/MS/UV on Sciex TripleTOF 5600 on a Hypersil Gold C18 column (100×2.1, […], Thermo Scientific) in a positive ESI ion mode. The column was eluted by a gradient of buffer A (0.1% formic acid) to buffer B (0.1% formic acid in acetonitrile), 5% B 0-0.5 min, 5-25% B 0.5-8 min, 25-75% B 8-13 min, and 75-95% B 13-13.5 min, 95% B 13.5-14.5 min, 95-5% B 14.5-15 min at 0.4 mL/min.

[6] = system: target-expressing cell lines; conditions: target-expressing cell lines (Hartley 2011); cited from earlier work

Compound | AntP % P (penetratin (AntP) peptide % product) [2] | HAS CR (HSA Conjugation Ratio) [3] | further results
O=[N+]([O-])c1ccc(S)nc1 [Compound 5, para-nitropyridyl thiol] |  |  | pKa [1]: 4.7 to 4.8
CC[C@H](C)[C@@H]([C@@H](CC(=O)N1CCC[C@H]1[C@H](OC)[C@@H](C)C(=O)N[C@H](C)[C@@H](O)c1ccccc1)OC)N(C)C(=O)[C@@H](NC(=O)[C@H](C(C)C)N(C)C(=O)OCC(C)(C)SSc1nc2ncnc(N)c2[nH]1)C(C)C (X4-[NMeV]V[Dil][Dolaproine]-X2) | 21% | 0.23 | 
CC[C@H](C)[C@@H]([C@@H](CC(=O)N1CCC[C@H]1[C@H](OC)[C@@H](C)C(=O)N[C@H](C)[C@@H](O)c1ccccc1)OC)N(C)C(=O)[C@@H](NC(=O)[C@H](C(C)C)N(C)C(=O)OCC(C)(C)SSc1nnn[nH]1)C(C)C (X9-[NMeV]V[Dil][Dolaproine]-X2) | 1.9% | 0.09 | 
C=C1C[C@H]2C=Nc3cc(OCCCCCOc4cc5c(cc4OC)C(=O)N4CC(=C)C[C@H]4[C@H](O)N5C(=O)OCC4(S)CC4)c(OC)cc3C(=O)N2C1 [Compound 7] |  |  | pKa [1]: 4.7 to 4.8; Percentage of all products ([4]; 30 μM cysteine, 1 h): 5.1%; Percentage of all products ([4]; 30 μM cysteine, 4 h): 9.7%; Percentage of all products ([4]; 30 μM cysteine, 24 h): 11.6%; Percentage of all products ([4]; 200 μM cysteine, 1 h): 44.7%; Percentage of all products ([4]; 200 μM cysteine, 4 h): 73.6%; Percentage of all products ([4]; 200 μM cysteine, 24 h): 87.3%; Percentage of all products ([4]; 4 mM GSH, 1 h): 80.8%; Percentage of all products ([4]; 4 mM GSH, 4 h): 89.7%; Percentage of all products ([4]; 4 mM GSH, 24 h): 92.3%; Immolation of thiol intermediate ([4]; incubation with cysteine or glutathione): did not appreciably immolate and appeared to be stable; DNA binding [5]: does not bind to DNA
CC[C@H](C)[C@@H]([C@@H](CC(=O)N1CCC[C@H]1[C@H](OC)[C@@H](C)C(=O)N[C@H](C)[C@@H](O)c1ccccc1)OC)N(C)C(=O)[C@@H](NC(=O)[C@H](C(C)C)N(C)C(=O)OCC(C)(C)SSc1nc2ncccc2[nH]1)C(C)C (X5-[NMeV]V[Dil][Dolaproine]-X2) | 12% | 0.84 | 
CC[C@H](C)[C@@H]([C@@H](CC(=O)N1CCC[C@H]1[C@H](OC)[C@@H](C)C(=O)N[C@H](C)[C@@H](O)c1ccccc1)OC)N(C)C(=O)[C@@H](NC(=O)[C@H](C(C)C)N(C)C(=O)OCC(C)(C)SSc1nc2c([N+](=O)[O-])cccc2[nH]1)C(C)C (X6-[NMeV]V[Dil][Dolaproine]-X2) | 26% | 0.65 | 
CC[C@H](C)[C@@H]([C@@H](CC(=O)N1CCC[C@H]1[C@H](OC)[C@@H](C)C(=O)N[C@H](C)[C@@H](O)c1ccccc1)OC)N(C)C(=O)[C@@H](NC(=O)[C@H](C(C)C)N(C)C(=O)OCC(C)(C)SSc1ncc(C(=O)O)n1C)C(C)C (X12-[NMeV]V[Dil][Dolaproine]-X2) | 4% | 0.55 | 
CC[C@H](C)[C@@H]([C@@H](CC(=O)N1CCC[C@H]1[C@H](OC)[C@@H](C)C(=O)N[C@H](C)[C@@H](O)c1ccccc1)OC)N(C)C(=O)[C@@H](NC(=O)[C@H](C(C)C)N(C)C(=O)OCC(C)(C)SSc1nc2cccc(C(=O)O)c2[nH]1)C(C)C (X22-[NMeV]V[Dil][Dolaproine]-X2) | 25% | 0.34 | 
C=C1C[C@H]2C=Nc3cc(OCCCCCOc4cc5c(cc4OC)C(=O)N4CC(=C)C[C@H]4C=N5)c(OC)cc3C(=O)N2C1 [Compound 8] |  |  | IC50 [6]: ~0.05 nM; DNA binding [5]: quickly binds to DNA; Fraction unextractable after incubation in DNA solution [5]: approximately 94%
CC[C@H](C)[C@@H]([C@@H](CC(=O)N1CCC[C@H]1[C@H](OC)[C@@H](C)C(=O)N[C@H](C)[C@@H](O)c1ccccc1)OC)N(C)C(=O)[C@@H](NC(=O)[C@H](C(C)C)N(C)C(=O)OCC(C)(C)SSc1ccncc1C(=O)N(C)C)C(C)C (X16-[NMeV]V[Dil][Dolaproine]-X2) | 51% | 0.22 | 
CC[C@H](C)[C@@H]([C@@H](CC(=O)N1CCC[C@H]1[C@H](OC)[C@@H](C)C(=O)N[C@H](C)[C@@H](O)c1ccccc1)OC)N(C)C(=O)[C@@H](NC(=O)[C@H](C(C)C)N(C)C(=O)OCC(C)(C)SSc1nc2nccnc2[nH]1)C(C)C (X8-[NMeV]V[Dil][Dolaproine]-X2) | 36% | 0.63 | 
CC[C@H](C)[C@@H]([C@@H](CC(=O)N1CCC[C@H]1[C@H](OC)[C@@H](C)C(=O)N[C@H](C)[C@@H](O)c1ccccc1)OC)N(C)C(=O)[C@@H](NC(=O)[C@H](C(C)C)N(C)C(=O)OCC(C)(C)SSc1nc2ccccc2n1C)C(C)C (X17-[NMeV]V[Dil][Dolaproine]-X2) | 7.5% | 0.87 | 
CC[C@H](C)[C@@H]([C@@H](CC(=O)N1CCC[C@H]1[C@H](OC)[C@@H](C)C(=O)N[C@H](C)[C@@H](O)c1ccccc1)OC)N(C)C(=O)[C@@H](NC(=O)[C@H](C(C)C)N(C)C(=O)OCC(C)(C)SSc1nc(C(=O)O)cn1C)C(C)C (X19-[NMeV]V[Dil][Dolaproine]-X2) | 4.9% | 0.38 | 
